Measurements from patent US10160954B2, “Engineered physical alignment of stem cell-derived cardiomyocytes” (The Regents of the University of California, priority 2013, dated 2018).

Test system: hESC-VCMs
Assay: Effect of isoproterenol on control and P5-aligned hESC-VCM preparations (optical mapping)
Format: cell-based, human
Conditions: for CV of control preparations: steady-state pacing at 1 Hz
Procedure: HESC-VCM preparations were loaded with 4 μM di-4-ANEPPS (Invitrogen, USA) for 20 min at room temperature in Tyrode's solution, consisting of (mM) 140 NaCl, 5 KCl, 1 MgCl2, 1 CaCl2, 10 glucose, and 10 HEPES at pH 7.4, then washed twice before fluorescence imaging using a halogen light filtered by a 515±35 nm band-pass excitation filter and a 590 nm high-pass emission filter. High-resolution optical mapping of AP and conduction properties was performed using a MiCam Ultima (SciMedia, Calif., USA) with a 1X objective and a 1X condensing lens to yield a 10×10 mm^2 field of view. A custom heat plate was introduced to maintain the perfused Tyrode's solution at 37° C. Data were collected at a sampling rate of 200 Hz and analyzed using BV_Ana software (SciMedia). Isoproterenol (Sigma-Aldrich, N.Y., USA) was applied by perfusion at the concentrations indicated.
Electrophysiological protocols were generated using a programmable stimulator (Master8, AMPI, Israel) with the stimuli delivered via a unipolar point-stimulation electrode (1.5× threshold, 10 ms duration) placed perpendicular to the preparation surface. […] The frequency was increased every minute in 0.1-Hz increments with a 5-sec pause.
Mapping was performed during the last 5-10 seconds of each frequency. […] Programmed electrical stimulation, Standard (S1-S2) programmed electrical stimulation (PES) protocol was introduced to study the electrical restitution curve (ERC) of hESC-VCMs. A premature extra-stimulus (S2) was delivered after a train of eight S1 stimuli at a basic cycle length (BCL) of 650 ms. S1-S2 interval was initiated at 600 ms and consecutively shortened in steps of 20 ms until capture has failed. […] There was a pause of 10 s after each S2. The entire stimulation protocol was performed within 30 minutes after di-4-ANEPPS staining.

[1] = P5-aligned preparations, 0.5 μM, n=3

CC(C)NCC(O)c1ccc(O)c(O)c1 (stereo not shown) [isoproterenol]
CV of control preparations (0.1 μM isoproterenol, n=3): 6.3 ± 1.4 cm/s | CV of control preparations (0.5 μM isoproterenol, n=3): 7.6 ± 1.1 cm/s | CV of control preparations (1.0 μM isoproterenol, n=3): 8.1 ± 0.6 cm/s | depolarization (upstroke) velocity (FIG. 6, hESC-VCMs): increasing | AP duration (FIG. 6F, hESC-VCMs): reduces | sustained functional reentrant arrhythmias (P5-aligned preparations, 0.5 μM, n=2): no sustained functional reentrant arrhythmias could be observed | L-CV after isoproterenol [1]: 7.76 cm/s | T-CV after isoproterenol [1]: 4.91 cm/s | AR after isoproterenol application (P5-aligned preparations, n=2): 1.76 | control preparations with spontaneous spiral waves (sustained functional reentrant arrhythmias) (control substrates, 2 of 3 preparations, 0.5 μM per FIG. 6C): 66%
